Laboratory results reported in publication PMC6413339 (EBioMedicine, 2019).

Test system: AML cell lines (MV4–11, MOLM-14, MOLM-14 (ITD, D835Y), MOLM-14 (ITD, F691 L))
Assay: Annexin V apoptosis (flow cytometry)
Type: cell-based, human
Conditions: 24 h and 48 h; dose- and time-dependent
Description: Cells seeded into T-25 flasks at a density of 8.0 × 10^4 cells/mL and incubated overnight at 37 °C with 5% CO2. Each treatment was performed in triplicates, with three flasks per treatment each with enough volume for both assays at the applicable time points. Following the overnight incubation, cells were treated with either DMSO or different concentrations of HSN431 (as indicated) in triplicates, mixed well and incubated. At each time point (24 and 48 h), aliquots of 1.5 mL of cells were collected from each flask and placed into labeled FACS tubes (for Annexin V apoptosis) or labeled 15 cc conical tubes (for cell cycle) and centrifuged at 300 × g for 5 min. Cells were washed twice with 1× PBS.
For Annexin V apoptosis, cell pellets were resuspended in 100 μL of 1× assay buffer and the binding of Annexin V and PI were measured by staining cells following the BD Pharmingen™ FITC Annexin V Apoptosis Detection Kit I (cat. no. 556547, BD Biosciences, San Jose, CA, USA) recommendations. Flow cytometry was performed on a a FACSCanto II flow cytometer (BD Bioscience, San Jose, CA, USA) and data analyzed using the FlowJo software (Flowjo, LLC, Ashland, OR).

In the case of `Cc1ncc(C(=O)Nc2ccc(CN3CCN(C)CC3)c(C(F)(F)F)c2)cc1C#Cc1c(N)ncc2ccc(F)cc12` [Compound 7], the total apoptosis is reported as “induced apoptosis”.
